# Test results from US20210308078A1, “NEW USE OF INHIBITORS OF MONOAMINE OXIDASE TYPE B” (ISTITUTO Di RICERCA PEDiATRiCA CITTA DELLA SPERANZA, priority 2018, published 2021).
# Assays:
# [1] = system: MAOA, MAOB; conditions: cited from earlier work
# [2] = system: caspase-1; assay: Caspase-1 activation assay (FLICA 660-YVAD-FMK, FACS) in human macrophages; type: cell-based; conditions: LPS/ATP and LPS/nigericin, 8 h; pargyline 100 μM, rasagiline 5 μM, NAC 5 mM
# Method: The cells were then marked with fluorescent antibodies anti-MHCII and analysed by FACS. The activity of the inflammasome was expressed as % of the cells that were positive for caspase-1 and for MHCII in relation to the total. The values are the average of at least 3 independent experiments±SEM.
# (§1) Human monocytes derived from buffy coats obtained from healthy donors were prepared as described in Cathcart, M. K., and Bhattacharjee, A. (2014). […] For macrophage differentiation, 5×10^6 monocytes, seeded in 24-well plates, were cultivated in RPMI 20% FBS in the presence of 10 ng/ml GM-CSF (Miltenyi Biotec) for 7 days. For inflammasome activation, 2×10^6 cells in 6-well plates were treated for 8 h with 100 ng/m1 of LPS Ultra-pure combined with ATP (1 mM) or nigericine (15 μM, added the last 30 min).
# The activation of caspase-1 in human macrophages was monitored by way of flow cytometry analysis. The cells, subjected to various treatments, were incubated at 37° C. for 3 h with FLICA 660-YVAD-FMK and washed according to the manufacturer's instructions (FLICA®660 Caspase-1 Assay Kit; ImmunoChemistry Technologies). […] The analysis was performed using CellQuest software (Becton Dickinson) in cells positive for caspase-1 and MHCII.
# [3] = system: IL-1β; assay: IL-1β release in human macrophages (ELISA); type: cell-based; conditions: LPS/ATP and LPS/nigericin, 8 h, pargyline 100 μM, rasagiline 5 μM, NAC 5 mM
# Method: FIG. 6. […] The levels of IL-1β in the supernatants were quantified by means of ELISA test. The values are the average of at least 3 independent experiments±SEM.
# as §1
# [4] = system: IL-1β; assay: IL-1β release in murine macrophages (ELISA); type: cell-based; conditions: LPS 100 ng/ml + ATP 5 mM, 4 h, pargyline 100 μM, rasagiline 5 μM
# Source text: FIG. 7. […] The levels of IL-1β in the supernatants were quantified by means of ELISA test.
# Murine macrophages isolated from bone marrow were obtained from the tibia and femoral bone as described in Coll, R. C., Robertson, A. A., Chae, J. J., Higgins, S. C., Munoz-Planillo, R., Inserra, M. C., Vetter, I., Dungan, L. S., Monks, B. G., Stutz, A., et al. (2015). A small-molecule inhibitor of the NLRP3 inflammasome for the treatment of inflammatory diseases. Nature medicine 21, 248-255.
# […] ATP (5 mM, added the last 30 min).
# The culture media sampled from stimulated and control human and murine macrophages were stored at −80° C. The levels of IL-1β0 were determined by means of commercially available ELISA kits (eBioscience) and were developed using 3,3′,5,5′-tetramethyl benzidine (TMB). The optical densities were measured at 450 nm by means of a microplate reader (Sunrise, Tecan; Switzerland).
# [5] = system: MAO; conditions: human macrophages stimulated 8 h with LPS, LPS/ATP or LPS/nig; pargyline 100 μM, rasagiline 5 μM
# Method: The intracellular levels of dopamine and norepinephrine (both substrates of MAO) were measured by means of mass spectrometry on cell lysates extracted with methanol:water (70:30). […] The values are the average of at least 3 independent experiments±SEM.
# as §1
# [6] = system: human macrophages; conditions: 8 h of stimulation; rasagiline 5 μM pre-treatment
# Method: After 8 h of stimulation, the macrophages were loaded with tetramethylrhodamine methyl ester (TMRM, 50 nM) to determine the mitochondrial membrane potential. After acquisition of images by fluorescence microscopy, the uncoupling agent FCCP (4 μM) was added to collapse the mitochondrial potential. The difference of the fluorescence intensity obtained before and after FCCP is shown in the graph and reflects the mitochondrial membrane potential. The data are expressed as fluorescence intensity and are normalised with respect to unstimulated cells (unst). The values are the average of at least 3 independent experiments±SEM. […]
# The mitochondrial membrane potential was measured on the basis of the accumulation of tetramethylrhodamine methyl ester (TMRM, Molecular Probes) as described in Sorato, E., Menazza, S., Zulian, A., Sabatelli, P., Gualandi, F., Merlini, L., Bonaldo, P., Canton, M., Bernardi, P., and Di Lisa, F. (2014). […] The medium was then substituted with a medium devoid of serum integrated with TMM 25 nM for 30 minutes, and the cell fluorescence images were acquired using a Leica microscope (Wetzlar, Germany) DMI6000B. The data were acquired and analysed by means of Metafluor software (Universal Imaging). An excitation of 540±20 nm and a 590 nm longpass emission filter were used to reveal the fluorescence. […]
# [7] = system: human macrophages; conditions: stimulation with LPS/ATP and LPS/nigericine, 3 h; rasagiline 5 μM
# Method: The images were acquired by means of fluorescence microscopy. The data are expressed as fluorescence intensity and are normalised with respect to unstimulated cells (unst). The values are the average of at least 3 independent experiments±SEM.
# as §1
# ROS were determined by means of carboxymethyl-dichlorofluorescein (CM-DCFDA). […] After 3 h of stimulation the cells were loaded with CM-DCFDA (2.5 μM) for 30 min. All of the steps were performed at 37° C. with 5% CO2. The cells were washed with PBS and the images were acquired using a Leica DMI6000B microscope (Wetzlar, Germany). The fluorescence was measured at 6-8 random intervals per slide and an average value was recorded. The fluorescence emission was performed using excitation filters of emission 488±20 nm and 645±37 nm. The data were acquired and analysed by means of Metafluor software (Universal Imaging).
# [8] = system: mice treated with LPS; conditions: rasagiline 0.5 mg/kg per os 12 h before LPS 10 mg/kg ip, 8 h
# Method: In parallel, a group of mice (ct) were treated with only the vehicle (PBS, ip). At the end, a sample of blood was taken and the plasma levels of IL-1β0 were quantified by means of Elisa test. […] The values are the average of at least 3 independent experiments±SEM.
# In parallel, a group of mice (ct) were treated with only the vehicle (PBS, ip). At the end, peritoneal washing with 2 ml of PBS was performed, as well as a leukocyte count.
# Adult mice were treated with a single injection of LPS (10 mg/kg ip) for 8 h or of vehicle (PBS, ip). […] At the end, the animals were sacrificed and samples were taken of blood and the peritoneal exudate.
# Male mice (strain C57BL/6J) of age 8-10 weeks and weight approximately 30 gr. were subjected to an intraperitoneal injection with LPS (10 mg/kg, L4130, Sigma-Aldrich) or vehicle (saline solution, called PBS). […] The treated animals were sacrificed 8 hours after the injection (considered as time 0), by means of cervical dislocation. Immediately after the sacrifice an intraperitoneal washing was performed with 2 ml of PBS and any exudate present was collected to determine the leukocyte count. In addition, samples of blood were taken and frozen after obtaining the plasma for analysis of IL-1β by means of ELISA test.
# [9] = system: NF-κB; conditions: murine macrophages
# Source text: The values are the average of at least 3 independent experiments±SEM.
smiles,measurement,setting,value
NNCCc1ccccc1 [phenelzine],selectivity of inhibition for MAOA / MAOB isoforms,[1],lack selectivity
CC(=O)N[C@@H](CS)C(=O)O [N-acetylcysteine],activity of the inflammasome (% cells positive for caspase-1 and MHCII),[2],effect is similar
same,release of IL-1β in supernatants,[3],effect is similar
C#CCN(C)Cc1ccccc1 [pargyline],selectivity of inhibition for MAOA / MAOB isoforms,[1],able to inhibit both the isoforms
same,activity of the inflammasome (% cells positive for caspase-1 and MHCII),[2],significantly inhibit the activity of the inflammasome
same,release of IL-1β in supernatants,[4],significantly inhibit the release of IL-1β
same,intracellular concentration of dopamine,[5],increases subsequently
same,release of IL-1β in supernatants,[3],significantly inhibit the release of IL-1β
N[C@@H]1C[C@H]1c1ccccc1 (racemic) [tranylcypromine],selectivity of inhibition for MAOA / MAOB isoforms,[1],lack selectivity
C#CCN[C@@H]1CCc2ccccc21 [rasagiline],"mitochondrial depolarisation (mitochondrial membrane potential, TMRM)",[6],significantly reduce the mitochondrial depolarisation
same,selectivity of inhibition for MAOA / MAOB isoforms,[1],MAOB are selectively inhibited
same,production of ROS,[7],reduces the production of ROS
same,activity of the inflammasome (% cells positive for caspase-1 and MHCII),[2],significantly inhibit the activity of the inflammasome
same,release of IL-1β in supernatants,[4],significantly inhibit the release of IL-1β
same,intracellular concentration of dopamine,[5],increases subsequently
same,concentration of leucocytes in the peritoneal liquid,[8],clear reduction of the concentration of leucocytes
same,plasma levels of IL-1β,[8],drastically reduces the increase of plasma levels of IL-1β
same,activation of NF-κB,[9],reduce the activation of NF-κB
same,protein levels of pro-IL-1β,[9],reduce
same,release of IL-1β in supernatants,[3],significantly inhibit the release of IL-1β
